Test results as given in patent US20120021979A1 (Vanderbilt University, priority 2010, published 2012).

What was measured:
DAT [1] = assay: radiolabeled DA [3H-DA] uptake in striatal slices; type: cell-based; conditions: 100 nM for 10 min, 3H-DA 10 min, vs vehicle
Description: Slices were exposed to ^3H-DA for 10 min and then washed to remove excess DA at 4° C. to stop uptake. Slices were homogenized and ^3H-DA quantified by a scintillation counter.

Na+/K+ ATPase = assay: slice based biotinylation, Na+/K+ ATPase surface expression in striatal slices; type: cell-based; conditions: 100 nM, 20 min, rat striatal slices, vs vehicle
Description: In addition, the absence of tyrosine hydroxylase (TH, a cytosolic protein found in DAT terminals) from the biotinylated surface fraction serves a control for the integrity of our slice preparation and specificity of the surface signal.

DAT [2] = assay: chronoamperometry of AMPH-induced DA efflux in striatal slices; type: cell-based; conditions: pretreatment 100 nM for 20 min, AMPH 10 μM
Description: Chronoamperometry was used to evaluate AMPH-induced DA efflux in striatal slices.

GLP-1 receptor = molecular target: T1, GLP-1 receptor (Rattus norvegicus, UniProt P32301); assay: locomotor activity with or without AMPH; type: in vivo
T1 construct: from tissue; host or cells: whole animal (in vivo, i.p. dosing)
T1 sequence (P32301 22-463): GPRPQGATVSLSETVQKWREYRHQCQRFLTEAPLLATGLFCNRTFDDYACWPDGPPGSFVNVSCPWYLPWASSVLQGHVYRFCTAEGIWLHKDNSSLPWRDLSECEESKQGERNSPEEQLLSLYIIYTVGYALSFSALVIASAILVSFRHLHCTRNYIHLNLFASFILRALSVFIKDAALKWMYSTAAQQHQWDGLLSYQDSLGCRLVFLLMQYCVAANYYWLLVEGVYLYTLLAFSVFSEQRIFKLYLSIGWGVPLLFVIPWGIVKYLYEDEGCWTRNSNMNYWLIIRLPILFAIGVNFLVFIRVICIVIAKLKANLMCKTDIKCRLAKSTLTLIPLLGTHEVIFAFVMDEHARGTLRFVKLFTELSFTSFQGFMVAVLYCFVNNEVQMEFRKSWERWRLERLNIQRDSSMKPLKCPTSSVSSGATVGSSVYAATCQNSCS

| Substance | DA uptake (3H-DA) (DAT [1]) | surface expression of the Na+/K+ ATPase (Na+/K+ ATPase) | AMPH-induced increase in extracellular DA (DAT [2]) | AMPH-induced locomotor activity (GLP-1 receptor; 30 μg/kg i.p. 90 min prior to AMPH 2.78 mg/Kg i.p.) | basal locomotion (GLP-1 receptor; 30 μg/kg i.p., absence of AMPH) |
| --- | --- | --- | --- | --- | --- |
| Glucagon-like peptide-1 [GLP-1] | significantly increased | did not affect | significantly potentiates |  |  |
| exendin-4 [EX4] |  |  |  | significantly decreased | significantly decreased |
